Test results: patent US20240240224A1, “FLUORESCENT D-TYPE AMINO ACID METABOLISM MARKER-BASED METHOD FOR DETECTING ANTIBACTERIAL DRUG SENSITIVITY TEST” (priority 2020, published 2024)
In brackets after ≈: the same amount, converted by molar mass.

Assays:
[1] = tested on: E. coli Ec11; experiment: BMD susceptibility test; type: cell-based, Escherichia coli; details: unit assumed
[2] = tested on: E. coli Ec11; experiment: FaAST (FDAA metabolic labeling); type: cell-based, Escherichia coli; details: unit assumed
Experimental: (§1) The specific experimental steps are as follows: • 1. Take the colony to be tested that has been cultured overnight on the plate and fully mix it in normal saline to make a uniform bacterial solution. Dilute it into CAMHB medium to make a bacterial solution with OD600=0.05. • 2. Add 45 μl antibiotic solutions to be tested of different concentrations to 96-well plates (see Table 3 for antibiotic concentration gradient settings). • 3. Add 50 μl of bacterial solution prepared in Step 1 to the 96-well plate and mix well. • 4.5 μl of 10 mM Cy5-DAA probe was added to each well (final concentration was 0.15 mM, and its structure was shown in FIG. 1). After mixing, the probe was incubated for 2 hours in the dark. • 5. After dilution with 200 μl PBS solution, the fluorescence intensity of each sample was detected by flow cytometry. The flow detection results are shown in the attached FIG. 4-5, showing the curve of antibiotic concentration gradient and fluorescence intensity, and the MIC (minimum inhibitory concentration) is obtained by referring to this curve.
(§2) Antibiotic resistant strains are shown in bold in the table below.

[3] = tested on: Ec ATCC 25922; experiment: FaAST (FDAA metabolic labeling); type: cell-based, Escherichia coli; details: unit assumed
Experimental: as §1, §2

[4] = tested on: E. coli Ec13; experiment: BMD susceptibility test; type: cell-based, Escherichia coli; details: unit assumed
[5] = tested on: E. coli Ec13; experiment: FaAST (FDAA metabolic labeling); type: cell-based, Escherichia coli; details: unit assumed
Experimental: as §1, with “cytometry.” for “cytometry. The flow detection results are shown in the attached FIG. 4-5, showing the curve of antibiotic concentration gradient and fluorescence intensity, and the MIC (minimum inhibitory concentration) is obtained by referring to this curve.”

[6] = tested on: Ec ATCC 25922; experiment: BMD susceptibility test; type: cell-based, Escherichia coli; details: unit assumed
[7] = tested on: K. pneumoniae Kp6; experiment: BMD susceptibility test; type: cell-based, Klebsiella pneumoniae; details: unit assumed
[8] = tested on: K. pneumoniae Kp9; experiment: BMD susceptibility test; type: cell-based, Klebsiella pneumoniae; details: unit assumed
[9] = tested on: K. pneumoniae Kp6; experiment: FaAST (FDAA metabolic labeling); type: cell-based, Klebsiella pneumoniae; details: unit assumed
Experimental: as §1, with “cytometry.” for “cytometry. The flow detection results are shown in the attached FIG. 4-5, showing the curve of antibiotic concentration gradient and fluorescence intensity, and the MIC (minimum inhibitory concentration) is obtained by referring to this curve.”

[10] = tested on: K. pneumoniae Kp9; experiment: FaAST (FDAA metabolic labeling); type: cell-based, Klebsiella pneumoniae; details: unit assumed
Experimental: as §1, with “cytometry.” for “cytometry. The flow detection results are shown in the attached FIG. 4-5, showing the curve of antibiotic concentration gradient and fluorescence intensity, and the MIC (minimum inhibitory concentration) is obtained by referring to this curve.”

[11] = tested on: Ec ATCC 25922; details: cited from earlier work
[12] = tested on: S. aureus ST398; experiment: FDAA metabolic labeling susceptibility test (Cy5-DAA probe, flow cytometry); type: cell-based; details: Staphylococcus aureus; S. aureus ST398; Cy5-DAA probe, 2 hours; read-out: MIC, FDAA
Experimental: (§3) Take the colony to be tested that has been cultured overnight on the plate and fully mix it in normal saline to make a uniform bacterial solution. Dilute it into Cation-Adjusted Mueller Hinton Broth (CAMHB) culture medium to make a bacterial solution with OD600=0.05. • 2. Add 45 μl antibiotic solutions of different concentrations to 96-well plates (see Table 1 for antibiotic concentration gradient settings). • 3. Add 50 μl of the bacterial solution prepared in step 1 to the 96-well plate and mix well. • 4. Add 5 μl of 10 mM Cy5-DAA probe (final concentration 0.15 mM, see FIG. 1 for its structure) into each well, mix well, and cultivate in dark for 2 hours. • 5. Add 200 μl After PBS solution is diluted, the fluorescence intensity of each sample is detected by flow cytometry. The flow detection results are shown in FIG. 4-5, showing the curve of the change of antibiotic concentration gradient and fluorescence intensity. The MIC (minimum inhibitory concentration) can be obtained by referring to this curve.

[13] = tested on: S. aureus ST59; experiment: as above; type: cell-based; details: Staphylococcus aureus; S. aureus ST59; Cy5-DAA probe, 2 hours; read-out: MIC, FDAA
Experimental: as §3

[14] = tested on: S. aureus ST5; experiment: as above; type: cell-based; details: Staphylococcus aureus; S. aureus ST5; Cy5-DAA probe, 2 hours; read-out: MIC, FDAA
Experimental: as §3

[15] = tested on: S. aureus ST5; experiment: Vitek 2 drug sensitivity test; type: cell-based, Staphylococcus aureus; on Sensibility: key: S: Drug sensitive; R: Drug resistance
[16] = tested on: S. aureus ST59; experiment: Vitek 2 drug sensitivity test; type: cell-based, Staphylococcus aureus; details: for MIC: Staphylococcus aureus; on Sensibility: key: S: Drug sensitive; R: Drug resistance
[17] = tested on: S. aureus ST398; experiment: Vitek 2 drug sensitivity test; type: cell-based, Staphylococcus aureus; details: for MIC: Staphylococcus aureus; on Sensibility: key: S: Drug sensitive; R: Drug resistance
[18] = tested on: E. faecium Ef26; experiment: BMD susceptibility test; type: cell-based, Enterococcus faecium; details: unit assumed
[19] = tested on: E. faecium Ef26; experiment: FaAST (FDAA metabolic labeling method); type: cell-based, Enterococcus faecium; details: unit assumed
Experimental: as §3
(§4) Bacteria with antibiotic resistance are shown in bold in the following table.

[20] = tested on: E. faecalis ATCC29212; experiment: BMD susceptibility test; type: cell-based, Enterococcus faecalis; details: unit assumed
[21] = tested on: E. faecalis ATCC29212; experiment: FaAST (FDAA metabolic labeling method); type: cell-based, Enterococcus faecalis; details: unit assumed
Experimental: as §3, §4

[22] = tested on: E. faecalis ATCC29212; details: cited from earlier work

| BMD (MIC) [18] | FaAST (MIC) [19] | BMD (MIC) [20] | FaAST (MIC) [21] | Compound | MIC [12] | MIC [13] | Sensibility [16] | MIC [16] | Sensibility [17] | MIC [17] | CLSI QC range [22] | further results |
| --- | --- | --- | --- | --- | --- | --- | --- | --- | --- | --- | --- | --- |
|  |  |  |  | Polymyxin B |  |  |  |  |  |  |  | BMD (MIC) [1]: 2 µg/mL; FaAST (MIC) [2]: 2 µg/mL; FaAST (MIC) [3]: 2 µg/mL; BMD (MIC) [4]: 8 µg/mL; FaAST (MIC) [5]: 8 µg/mL; BMD (MIC) [6]: 2 µg/mL; BMD (MIC) [7]: 0.5 µg/mL; BMD (MIC) [8]: 16 µg/mL; FaAST (MIC) [9]: 1 µg/mL; FaAST (MIC) [10]: 32 µg/mL; CLSI QC range [11]: 0.25-2 |
|  |  |  |  | Cc1onc(-c2ccccc2)c1C(=O)N[C@@H]1C(=O)N2[C@@H]1SC(C)(C)[C@@H]2C(=O)O [OX, oxacillin] | 0.25 µg/mL (≈ 0.623 µM) | 32 µg/mL (≈ 79.7 µM) | R | 16 µg/mL (≈ 39.9 µM) | S | ≤ 0.25 µg/mL |  | MIC [14]: ≥ 1020 µg/mL; Sensibility [15]: R; MIC ([15]; Staphylococcus aureus): 256 µg/mL (≈ 638 µM) |
| 64 µg/mL | 32 µg/mL | 2 µg/mL | 4 µg/mL | CC1(C)S[C@@H]2[C@H](NC(=O)Cc3ccccc3)C(=O)N2[C@H]1C(=O)O [Penicillin G, penicillin G] |  |  |  |  |  |  | 1-4 |  |
| ≤ 0.25 µg/mL | ≤ 0.25 µg/mL | 2 µg/mL | 2 µg/mL | CC[C@H]1OC(=O)[C@H](C)[C@@H](O[C@H]2C[C@@](C)(OC)[C@@H](O)[C@H](C)O2)[C@H](C)[C@@H](O[C@@H]2O[C@H](C)C[C@H](N(C)C)[C@H]2O)[C@](C)(O)C[C@@H](C)C(=O)[C@H](C)[C@@H](O)[C@]1(C)O [Erythromycin, erythromycin] | 0.5 µg/mL (≈ 0.681 µM) | 8 µg/mL (≈ 10.9 µM) | R | ≥ 8 µg/mL | S | ≤ 0.25 µg/mL | 1-4 |  |
